Measured values published in US11713335B2, “Aminocoumarin compounds and methods of their use” (President and Fellows of Harvard College, priority 2018, dated 2023).
≈ marks a conversion by molar mass, not a printed value. Like-named read-outs stand apart in the source and are kept apart here.

How the values were obtained:
Format in all cases: cell-based
S. aureus RN4220 = experiment: Minimal inhibitory concentration, S. aureus RN4220; details: 16 hour minimal inhibitory concentration at 37° C., read-out: MIC (μM) S. aureus RN4220
Description: (§1) General Procedure for Determination of Minimal Inhibitory Concentrations
(§2) Overnight cultures (5 mL) of bacterial strains were grown in LB media or TSA media (for S. aureus) at 37° C. and with shaking at 220 rpm until saturation. The overnight culture was diluted serially 1:100 (50 μL in 5 mL sterile media) and then 1:100 (250 μL in 25 mL sterile media). The 25 mL of diluted culture was then dispensed to a sterile 96 well plate (Corning #3370). 198 μL of culture were dispensed into row A and 100 μL of this culture were dispensed into rows B-H. Aminocoumarin compound (DMSO stock) were added to the first row and then the row was mixed by pipetting. 100 μL of culture from row A were transferred to row B and the serial dilution continued until the final 100 μL from row H were discarded. The plate was incubated without shaking in a 37° C. for 16 hours and then read by visible light spectrophotometer (Molecular Devices) at 600 nm. The minimal inhibitory concentration (MIC) was determined as the lowest concentration of compound concentration that inhibited the growth of bacteria.
(§3) The compounds of the invention were assessed for activities against the pathogens S. aureus RN4220 and MW2, E. cloacae 13047, A. baumannii 19606, K. pneumoniae 700721, E. coli MC4100, 25922. All activities are reported in micromolar (uM) and are 16 hour minimal inhibitory concentrations at 37° C. The assay is detailed in Example 11 and is titled “General Procedure for Determination of Minimal Inhibitory Concentrations.”

S. aureus MW2 = experiment: Minimal inhibitory concentration, S. aureus MW2; details: 16 hour minimal inhibitory concentration at 37° C., read-out: MIC (μM) S. aureus MW2 (MRSA)
Description: as §1, §2, §3

E. cloacae 13047 = experiment: Minimal inhibitory concentration, E. cloacae 13047; details: 16 hour minimal inhibitory concentration at 37° C., read-out: MIC (μM) E. cloacae 13047
Description: as §1, §2, §3

A. baumannii 19606 = experiment: Minimal inhibitory concentration, A. baumannii 19606; details: 16 hour minimal inhibitory concentration at 37° C., read-out: MIC (μM) A. baumannii 19606
Description: as §1, §2, §3

K. pneumoniae 700721 = experiment: Minimal inhibitory concentration, K. pneumoniae 700721; details: 16 hour minimal inhibitory concentration at 37° C., read-out: MIC (μM) K. pneumoniae 700721
Description: as §1, §2, §3

E. coli MC4100 = experiment: Minimal inhibitory concentration, E. coli MC4100; details: 16 hour minimal inhibitory concentration at 37° C., read-out: MIC (μM) E. coli MC4100 ara+
Description: as §1, §2, §3

E. coli 25922 = experiment: Minimal inhibitory concentration, E. coli 25922; details: 16 hour minimal inhibitory concentration at 37° C., read-out: MIC (μM) E. coli 25922
Description: as §1, §2, §3

[1] = Staphylococcus aureus, RN4220, 16 h
[2] = Staphylococcus aureus, MRSA, 16 h
[3] = Acinetobacter baumannii, 19606, 16 h

Structure (SMILES) | MIC (S. aureus RN4220) | MIC (S. aureus MW2) | MIC (E. cloacae 13047) | MIC (A. baumannii 19606) | MIC (K. pneumoniae 700721) | MIC (E. coli MC4100) | MIC (E. coli 25922) | MIC (S. aureus RN4220; [1]) | MIC (S. aureus MW2; [2]) | MIC (E. cloacae 13047; Enterobacter cloacae, 13047) | MIC (A. baumannii 19606; [3]) | MIC (K. pneumoniae 700721; Klebsiella pneumoniae, 700721) | MIC (E. coli MC4100; Escherichia coli, MC4100, 16 h) | MIC (E. coli 25922; Escherichia coli, 25922, 16 h)
COc1cccc(-c2cccc(C(=O)Nc3c(O)c4ccc(O[C@@H]5OC(C)(C)[C@H](OC)[C@@H](OC(N)=O)[C@H]5O)c(C)c4oc3=O)c2)c1 [Compound 103] | 36 µM (≈ 22.8 µg/mL) | 36 µM (≈ 22.8 µg/mL) | >100 µM | 9 µM (≈ 5.71 µg/mL) | >100 µM | >200 µM | >200 µM |  |  |  |  |  |  | 
CO[C@@H]1[C@@H](OC(N)=O)[C@@H](O)[C@H](Oc2ccc3c(O)c(NC(=O)c4cccc(Oc5cccc(C)c5)c4)c(=O)oc3c2C)OC1(C)C [Compound 247] |  |  |  |  |  |  |  | 10 µM (≈ 6.35 µg/mL) | 5 µM (≈ 3.17 µg/mL) | > 100 µM | > 50 µM | > 100 µM | 18 µM (≈ 11.4 µg/mL) | 39 µM (≈ 24.8 µg/mL)
CO[C@@H]1[C@@H](OC(N)=O)[C@@H](O)[C@H](Oc2ccc3c(OCCCO)c(NC(=O)c4ccc(O)c(CC=C(C)C)c4)c(=O)oc3c2C)OC1(C)C [Compound 216] |  |  |  |  |  |  |  | 19 µM (≈ 12.7 µg/mL) | 19 µM (≈ 12.7 µg/mL) | > 100 µM | > 50 µM | > 100 µM | > 200 µM | > 200 µM
CO[C@@H]1[C@@H](OC(N)=O)[C@@H](O)[C@H](Oc2ccc3c(O)c(NC(=O)c4ccc(C)c(Oc5ccccc5)c4)c(=O)oc3c2C)OC1(C)C [Compound 255] |  |  |  |  |  |  |  | 5 µM (≈ 3.17 µg/mL) | 5 µM (≈ 3.17 µg/mL) | 77 µM (≈ 48.9 µg/mL) | > 50 µM | 10 µM (≈ 6.35 µg/mL) | 2.4 µM (≈ 1.52 µg/mL) | 5 µM (≈ 3.17 µg/mL)
CO[C@@H]1[C@@H](OC(N)=O)[C@@H](O)[C@H](Oc2ccc3c(O)c(NC(=O)c4cccc(-c5ccc(F)c(F)c5)c4)c(=O)oc3c2C)OC1(C)C [Compound 219] |  |  |  |  |  |  |  | 5 µM (≈ 3.2 µg/mL) | 5 µM (≈ 3.2 µg/mL) | > 100 µM | > 50 µM | 78 µM (≈ 50 µg/mL) | 39 µM (≈ 25 µg/mL) | 20 µM (≈ 12.8 µg/mL)
CO[C@@H]1[C@@H](OC(N)=O)[C@@H](O)[C@H](Oc2ccc3c(O)c(NC(=O)c4cccc(Oc5ccccc5C)c4)c(=O)oc3c2C)OC1(C)C [Compound 220] |  |  |  |  |  |  |  | 10 µM (≈ 6.35 µg/mL) | 10 µM (≈ 6.35 µg/mL) | > 100 µM | > 50 µM | > 100 µM | 158 µM (≈ 100 µg/mL) | 160 µM (≈ 102 µg/mL)
Cc1c(O)ccc2c(O)c(NC(=O)c3ccc(I)c(-c4ccccc4)c3)c(=O)oc12 [Compound 228] |  |  |  |  |  |  |  | 97 µM (≈ 49.8 µg/mL) | 97 µM (≈ 49.8 µg/mL) | > 100 µM | > 50 µM | > 100 µM | > 200 µM | > 200 µM
CO[C@@H]1[C@@H](OC(N)=O)[C@@H](O)[C@H](Oc2ccc3c(O)c(NC(=O)c4cc(C)oc4C)c(=O)oc3c2C)OC1(C)C [Compound 200] |  |  |  |  |  |  |  | 91 µM (≈ 49.7 µg/mL) | 91 µM (≈ 49.7 µg/mL) | > 100 µM | > 50 µM | > 100 µM | > 200 µM | > 200 µM
CO[C@@H]1[C@@H](O)[C@@H](OC(=O)NC2CCCCC2)[C@H](Oc2ccc3c(O)c(NC(=O)c4ccc(O)c(CC=C(C)C)c4)c(=O)oc3c2C)OC1(C)C [Compound 110] | >100 µM | >100 µM | >100 µM | >50 µM | >100 µM | >200 µM | >200 µM |  |  |  |  |  |  | 
CO[C@@H]1[C@@H](OC(=O)Nc2ccccc2)[C@@H](O)[C@H](Oc2ccc3c(O)c(NC(=O)c4cccc(-c5ccc6ccccc6c5)c4)c(=O)oc3c2C)OC1(C)C [Compound 205] |  |  |  |  |  |  |  | 9 µM (≈ 6.58 µg/mL) | 9 µM (≈ 6.58 µg/mL) | > 100 µM | > 50 µM | > 100 µM | > 200 µM | > 200 µM
